In PMC9127186, “Molecular Basis Underlying Hepatobiliary and Renal Excretion of Phenolic Acids of Salvia miltiorrhiza Roots (Danshen)” (Frontiers in Pharmacology, 2022):

Assays:
[1] = target: T1, human MRP4 (Homo sapiens, UniProt O15439); assay: Vesicular transport assay, inside-out membrane vesicles expressing human MRP4; details: for TransportATP/TransportAMP ratio (net transport ratio): 10 min
T1 sequence (O15439 1-1325): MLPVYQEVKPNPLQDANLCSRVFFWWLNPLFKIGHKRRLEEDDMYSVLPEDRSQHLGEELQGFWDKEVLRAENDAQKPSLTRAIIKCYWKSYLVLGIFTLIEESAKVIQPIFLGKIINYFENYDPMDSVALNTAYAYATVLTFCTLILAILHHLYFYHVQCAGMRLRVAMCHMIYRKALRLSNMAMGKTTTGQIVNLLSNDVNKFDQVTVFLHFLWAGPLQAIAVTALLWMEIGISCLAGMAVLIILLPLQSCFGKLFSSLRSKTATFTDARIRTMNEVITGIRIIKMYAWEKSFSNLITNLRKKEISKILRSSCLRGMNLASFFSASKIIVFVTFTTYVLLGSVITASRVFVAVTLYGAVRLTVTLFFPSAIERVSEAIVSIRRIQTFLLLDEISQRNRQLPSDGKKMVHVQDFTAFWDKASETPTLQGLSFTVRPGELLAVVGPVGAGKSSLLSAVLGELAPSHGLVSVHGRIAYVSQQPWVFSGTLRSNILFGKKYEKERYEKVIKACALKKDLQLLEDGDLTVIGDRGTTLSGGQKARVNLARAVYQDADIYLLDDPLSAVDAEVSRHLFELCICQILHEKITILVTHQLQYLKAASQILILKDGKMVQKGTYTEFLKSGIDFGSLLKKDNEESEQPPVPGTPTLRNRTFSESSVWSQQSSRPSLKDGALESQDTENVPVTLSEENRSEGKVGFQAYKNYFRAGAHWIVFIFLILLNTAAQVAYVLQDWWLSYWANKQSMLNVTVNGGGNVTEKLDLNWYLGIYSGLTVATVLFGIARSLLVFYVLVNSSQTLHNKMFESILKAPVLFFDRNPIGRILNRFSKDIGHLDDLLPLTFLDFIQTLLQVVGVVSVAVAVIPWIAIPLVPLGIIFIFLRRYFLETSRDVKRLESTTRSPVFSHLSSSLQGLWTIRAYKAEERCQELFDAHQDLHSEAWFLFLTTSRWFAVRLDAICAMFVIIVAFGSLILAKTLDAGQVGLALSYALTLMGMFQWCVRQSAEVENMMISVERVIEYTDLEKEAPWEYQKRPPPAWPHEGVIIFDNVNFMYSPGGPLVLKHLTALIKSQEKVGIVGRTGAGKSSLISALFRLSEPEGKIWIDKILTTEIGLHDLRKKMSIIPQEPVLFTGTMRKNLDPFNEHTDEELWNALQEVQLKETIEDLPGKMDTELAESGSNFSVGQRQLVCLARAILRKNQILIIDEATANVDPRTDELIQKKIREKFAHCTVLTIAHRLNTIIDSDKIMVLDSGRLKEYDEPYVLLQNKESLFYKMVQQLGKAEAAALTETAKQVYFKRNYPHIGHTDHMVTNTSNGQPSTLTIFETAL
Experimental: (§1) Inside-out membrane vesicles (5 mg protein/mL), prepared from insect cells expressing human multidrug resistance-associated protein (MRP) 2, MRP3, MRP4, breast cancer resistance protein (BCRP), bile salt export pump (BSEP), and multidrug resistance protein (MDR) one and rat Mrp2, Mrp4, Bcrp, and Bsep, and vesicles (5 mg protein/mL; prepared from the insect cells expressing no ABC transporter; serving as negative control) were obtained from Genomembrane (Kanazawa, Japan).
(§2) The test Danshen compounds at 100 µM final concentration were separately incubated with the membrane vesicles for 10 min. Buffer C (50 mM MOPS-tris, 70 mM KCl, 7.5 mM MgCl2, pH 7.0) was used for preincubation and incubation, while buffer D (40 mM MOPS-tris, 70 mM KCl, pH 7.0) was used for vesicle washing. The transport rate (pmol/mg protein/min) of the test Danshen compound was calculated using Equation (2): Transport=(CV×VV)/T/WV (2) where C V, V V, T, and W V represent concentration of the compound in vesicular lysates supernatant (μM), volume of the lysates (μL), incubation time (10 min), and amount of vesicle protein amount per well (0.05 mg), respectively. Differential transport of the test Danshen compound between ATP-containing vesicles and AMP-containing vesicles was defined as net transport ratio (TransportATP/TransportAMP ratio). […] All the incubation samples were analyzed by liquid chromatography/mass spectrometry.

[2] = target: human MDR1 (Homo sapiens, UniProt P08183); assay: Vesicular transport assay, inside-out membrane vesicles expressing human MDR1; details: 10 min
Experimental: as §1, §2

[3] = target: T2, human OAT3 (Homo sapiens, UniProt Q8TCC7); assay: Cellular transport assay, HEK-293 cells expressing human OAT3; details: for TransportTC/TransportMC ratio (net transport ratio): 10 min
T2 sequence (Q8TCC7 1-542): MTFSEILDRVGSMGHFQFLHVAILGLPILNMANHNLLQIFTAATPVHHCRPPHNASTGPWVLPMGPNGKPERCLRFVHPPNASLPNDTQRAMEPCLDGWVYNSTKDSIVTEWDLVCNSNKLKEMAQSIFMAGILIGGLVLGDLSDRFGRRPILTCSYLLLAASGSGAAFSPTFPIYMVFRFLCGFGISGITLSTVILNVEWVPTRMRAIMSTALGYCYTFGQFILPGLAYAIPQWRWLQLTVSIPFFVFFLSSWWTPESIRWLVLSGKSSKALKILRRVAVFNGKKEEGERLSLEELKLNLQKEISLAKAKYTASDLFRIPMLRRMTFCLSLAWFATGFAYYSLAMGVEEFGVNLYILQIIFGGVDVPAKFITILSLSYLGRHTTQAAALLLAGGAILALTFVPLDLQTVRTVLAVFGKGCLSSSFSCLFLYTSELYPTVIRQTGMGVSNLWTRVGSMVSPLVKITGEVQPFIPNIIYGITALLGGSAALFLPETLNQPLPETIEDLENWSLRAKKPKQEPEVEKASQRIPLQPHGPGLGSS
Experimental: Briefly, HEK-293 cells were grown, at 37°C and 5% CO2, in Dulbecco’s modified Eagle’s medium, which was fortified with 10% fetal bovine serum, 1% minimal essential medium nonessential amino acids, and 1% antibiotic-antimycotic solution. A day before transfection, cells were seeded onto 24-well poly-D-lysine-coated plates at a density of 2 × 10^5 cells per well. After incubation at 37°C and 5% CO2 for 24 h, the expression plasmid and the empty vector were introduced separately into the HEK293 cells with Lipofectamine 2000 transfection reagent (Invitrogen, Carlsbad, CA, United States), according to the manufacturer’s protocol to yield transporter-expressing cells and mock cells, respectively.
Transport studies were performed 48 h after the transfection. […] Differential uptake between the transfected cells and mock cells was defined as net transport ratio (TransportTC/TransportMC ratio), where TransportTC and TransportMC are the transport rates of a test Danshen compound into transfected and mock cells, respectively. […] The determination was performed under linear uptake conditions by incubation for 5 min. Table 1 summarizes the final concentrations of the test Danshen compounds for different transporters. All the incubation samples were analyzed by liquid chromatography/mass spectrometry.
GraFit software (version 5.0; Erithacus Software Ltd, Surrey, United Kingdom) was used to determine the K m and V max values by nonlinear regression analysis of initial transport rates as a function of substrate concentration.

[4] = Danshen phenolic acid at 100 μM final concentration, human MRP4 vesicles
[5] = Danshen phenolic acid at 100 μM final concentration, human MDR1 vesicles
[6] = Danshen phenolic acid at 100 μM final concentration, human OAT3-transfected vs mock cells

Chain of human MDR1 (P08183 whole entry): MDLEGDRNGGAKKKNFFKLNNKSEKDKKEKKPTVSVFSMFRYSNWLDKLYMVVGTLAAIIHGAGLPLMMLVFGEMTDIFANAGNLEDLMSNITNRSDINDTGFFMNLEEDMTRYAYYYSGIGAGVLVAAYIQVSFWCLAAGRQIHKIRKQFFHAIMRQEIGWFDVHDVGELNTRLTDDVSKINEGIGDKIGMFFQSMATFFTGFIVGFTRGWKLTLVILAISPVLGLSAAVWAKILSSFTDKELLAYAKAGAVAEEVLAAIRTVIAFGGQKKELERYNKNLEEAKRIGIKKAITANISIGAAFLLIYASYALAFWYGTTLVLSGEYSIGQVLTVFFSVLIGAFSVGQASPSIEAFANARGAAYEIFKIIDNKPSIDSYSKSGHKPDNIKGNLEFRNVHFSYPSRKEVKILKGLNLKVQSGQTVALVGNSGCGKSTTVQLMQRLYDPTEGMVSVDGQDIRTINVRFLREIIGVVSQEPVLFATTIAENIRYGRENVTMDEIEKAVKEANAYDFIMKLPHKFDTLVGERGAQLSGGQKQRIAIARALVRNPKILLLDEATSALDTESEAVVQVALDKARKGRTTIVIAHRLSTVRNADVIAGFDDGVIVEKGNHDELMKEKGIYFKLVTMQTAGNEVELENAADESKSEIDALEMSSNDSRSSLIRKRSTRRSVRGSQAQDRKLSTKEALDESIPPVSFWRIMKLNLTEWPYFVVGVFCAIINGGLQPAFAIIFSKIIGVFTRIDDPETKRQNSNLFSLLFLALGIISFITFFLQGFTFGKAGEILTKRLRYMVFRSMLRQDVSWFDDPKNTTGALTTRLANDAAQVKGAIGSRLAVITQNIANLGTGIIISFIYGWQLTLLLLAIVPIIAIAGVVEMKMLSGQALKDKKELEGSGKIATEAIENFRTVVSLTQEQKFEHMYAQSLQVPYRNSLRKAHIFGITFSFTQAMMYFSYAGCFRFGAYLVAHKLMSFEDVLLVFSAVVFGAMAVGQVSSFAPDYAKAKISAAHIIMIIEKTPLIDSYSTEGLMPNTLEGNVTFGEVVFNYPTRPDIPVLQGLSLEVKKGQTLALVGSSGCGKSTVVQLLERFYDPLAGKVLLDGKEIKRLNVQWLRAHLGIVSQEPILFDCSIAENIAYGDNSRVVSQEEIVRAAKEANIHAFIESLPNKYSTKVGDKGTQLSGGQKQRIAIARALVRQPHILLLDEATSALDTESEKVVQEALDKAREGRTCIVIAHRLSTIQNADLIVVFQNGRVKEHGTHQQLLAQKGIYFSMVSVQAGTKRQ

Compound | TransportATP/TransportAMP ratio (net transport ratio) [1, 4] | TransportATP/TransportAMP ratio (net transport ratio) [2, 5] | TransportTC/TransportMC ratio (net transport ratio) [3, 6] | other results
O=C(/C=C/c1ccc(O)c2c1[C@H](C(=O)O)[C@@H](c1ccc(O)c(O)c1)O2)O[C@H](Cc1ccc(O)c(O)c1)C(=O)O [Lithospermic acid, lithospermic acid] | 1.36 ± 0.14 | 1.26 ± 0.09 | 0.96 ± 0.15 | 
O=C(O)c1ccc(O)c(O)c1 [Protocatechuic acid, protocatechuic acid] | 1.25 ± 0.14 | 0.93 ± 0.04 | 1.12 ± 0.25 | 
O=C(/C=C/c1ccc(O)c(O)c1)O[C@H](Cc1ccc(O)c(O)c1)C(=O)O [Rosmarinic acid, rosmarinic acid] |  |  |  | TransportATP/TransportAMP ratio (net transport ratio) ([1]; human, 100 μM, pH 7): 1.99 ± 0.08; TransportATP/TransportAMP ratio (net transport ratio) ([2]; human, 100 μM, pH 7): 1.04 ± 0.18; TransportTC/TransportMC ratio (net transport ratio) ([3]; human, 100 μM): 1.56 ± 0.36
O=C(/C=C/c1ccc(O)c(O)c1/C=C/c1ccc(O)c(O)c1)O[C@H](Cc1ccc(O)c(O)c1)C(=O)O [Salvianolic acid A, salvianolic acid A] |  |  |  | TransportATP/TransportAMP ratio (net transport ratio) ([1]; human, 100 μM, pH 7): 1.56 ± 0.05; TransportATP/TransportAMP ratio (net transport ratio) ([2]; human, 100 μM, pH 7): 1.26 ± 0.05; TransportTC/TransportMC ratio (net transport ratio) ([3]; human, 100 μM): 2.12 ± 0.13
O=C(O)Cc1c(/C=C/C(=O)O[C@H](Cc2ccc(O)c(O)c2)C(=O)O)ccc(O)c1O [Salvianolic acid D, salvianolic acid D] | 5.27 ± 0.51 | 0.92 ± 0.23 | 1.12 ± 0.56 | substrate of human MRP4 [1]: substrate
O=C(O)C(O)Cc1ccc(O)c(O)c1 (stereo not drawn) [Tanshinol, tanshinol] |  |  |  | K m ([3]; human renal basolateral uptake OAT3, 5 min incubation, concentrations in Table 1): 1,565 ± 127 μM; microsomal CLint ([3]; human, other cell line): 0.11 µL/min/mg
salvianolic acid B | 1.99 ± 0.06 | 1.66 ± 0.12 | 1.03 ± 0.24 | 
